The values that follow come from patent US20240083900A1, “PYRAZOLO[1,5-A]PYRAZINE DERIVATIVES AS BTK INHIBITORS” (BIOGEN MA INC., priority 2020, published 2024).

Where only a bound is given, the exact number is not on record here.

BTK, sequence (Q06187 whole entry): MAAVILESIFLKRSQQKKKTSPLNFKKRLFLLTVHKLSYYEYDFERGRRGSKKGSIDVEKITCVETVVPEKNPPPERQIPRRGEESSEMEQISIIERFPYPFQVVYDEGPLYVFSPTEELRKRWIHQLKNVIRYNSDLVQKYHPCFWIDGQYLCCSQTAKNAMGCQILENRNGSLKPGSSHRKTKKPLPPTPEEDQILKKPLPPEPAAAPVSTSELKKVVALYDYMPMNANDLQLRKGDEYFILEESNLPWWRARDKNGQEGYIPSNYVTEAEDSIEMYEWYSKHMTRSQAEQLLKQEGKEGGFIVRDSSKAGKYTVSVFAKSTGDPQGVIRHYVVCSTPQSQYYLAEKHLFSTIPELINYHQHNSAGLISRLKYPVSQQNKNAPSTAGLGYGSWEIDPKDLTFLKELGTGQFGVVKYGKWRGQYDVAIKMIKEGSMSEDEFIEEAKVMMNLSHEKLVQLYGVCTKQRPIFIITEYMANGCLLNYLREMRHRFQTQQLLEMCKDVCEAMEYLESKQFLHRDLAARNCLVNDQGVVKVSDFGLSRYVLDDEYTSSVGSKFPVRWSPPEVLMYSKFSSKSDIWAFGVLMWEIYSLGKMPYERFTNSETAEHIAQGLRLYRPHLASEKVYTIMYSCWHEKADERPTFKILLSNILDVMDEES

The target of this experiment is BTK (Homo sapiens (Human), UniProt Q06187). In words: In Vitro BTK Kinase Assay: Btk-PolyGAT-LS Assay. The note with it: BTK enzyme 0.25 nM, ATP 10 μM, polyGAT 100 nM, 30 minutes incubation, TRF readout; read-out: IC50. The class given is biochemical. The procedure:
The purpose of the BTK in vitro assay is to determine compound potency against BTK through the measurement of IC50. […] For a typical assay, a 24 μL aliquot of a ATP/peptide master mix (final concentration; ATP 10 μM, polyGAT 100 nM) in kinase buffer (10 mM Tris-HCl pH 7.5, 10 mM MgCl2, 200 μM Na3PO4, 5 mM DTT, 0.01% Triton X-100, and 0.2 mg/ml casein) is added to each well. […] The assay is incubated for 30 minutes before being stopped with 28 μL of a 50 mM EDTA solution. […] The plate is covered and incubated for 45 minutes at room temperature.
`CC#CC(=O)N(CCF)[C@H]1C[C@H](Oc2nc(-c3cnn(C)c3)cn3nccc23)C1` [Example 223, N-(2-fluoroethyl)-N-((trans)-3-((6-(1-methyl-1H-pyrazol-4-yl)pyrazolo[1,5-a]pyrazin-4-yl)oxy)cyclobutyl)but-2-ynamide]: the IC50 was 10 to 1000 nM.

With `Cc1c(NC(=O)C2=CCC2)cc(F)cc1Oc1nc(-c2cnn(C)c2)cn2nccc12` [Example 134, N-(5-fluoro-2-methyl-3-((6-(1-methyl-1H-pyrazol-4-yl)pyrazolo[1,5-a]pyrazin-4-yl)oxy)phenyl)cyclobut-1-ene-1-carboxamide], the IC50 lay within 1 to 10 nM.

Regarding `C=CC(=O)N1CCC[C@@H](Oc2cc(-c3cnn(C)c3)cc3nccn23)CC1` [Example 65, 1-[(4R)-4-[7-(1-methylpyrazol-4-yl)imidazo[1,2-a]pyridin-5-yl]oxyazepan-1-yl]prop-2-en-1-one], the IC50 was 1 to 10 nM.

Regarding `C=CC(=O)N1CC2CC1CC2Nc1cc(-c2cnn(C)c2)cn2nccc12` (centres unmarked) [Example 88, 1-(5-((6-(1-methyl-1H-pyrazol-4-yl)pyrazolo[1,5-a]pyridin-4-yl)amino)-2-azabicyclo[2.2.1]heptan-2-yl)prop-2-en-1-one], the IC50 fell in the range of 1 to 10 nM.

As to `CN(C)C/C=C/C(=O)N(CC(F)F)[C@H]1CC[C@@H](Oc2nc(-c3cnn(C)c3)cn3nccc23)C1` [Example 147, (E)-N-(2,2-difluoroethyl)-4-(dimethylamino)-N-((1S,3R)-3-((6-(1-methyl-1H-pyrazol-4-yl)pyrazolo[1,5-a]pyrazin-4-yl)oxy)cyclopentyl)but-2-enamide], the half-maximal inhibitory concentration (IC50) was 1 to 10 nM.

Take `Cn1cc(-c2cn3nccc3c(O[C@]3(C)C[C@H](N(C)C(=O)C4=CCC4)C3)n2)cn1` [Example 230, N-methyl-N-((1s,3s)-3-methyl-3-((6-(1-methyl-1H-pyrazol-4-yl)pyrazolo[1,5-a]pyrazin-4-yl)oxy)cyclobutyl)cyclobut-1-ene-1-carboxamide]: the IC50 lay in the range of 1 to 10 nM.

Take `C#CC(=O)N1CCC[C@H](Oc2nc(-c3cnn(C)c3)cc3nccn23)CC1` (single isomer, unassigned) [Example 37, (R)- or (S)-1-(4-((7-(1-methyl-1H-pyrazol-4-yl)imidazo[1,2-c]pyrimidin-5-yl)oxy)azepan-1-yl)prop-2-yn-1-one]: the IC50 lay within 1 to 10 nM.

Take `CN(C)C/C=C/C(=O)N[C@H]1CCC[C@@H](Oc2nc(-c3cnn(C)c3)cn3ncc(F)c23)C1` [Example 94, (E)-4-(dimethylamino)-N-((1S,3R)-3-((3-fluoro-6-(1-methyl-1H-pyrazol-4-yl)pyrazolo[1,5-a]pyrazin-4-yl)oxy)cyclohexyl)but-2-enamide]: the IC50 fell in the range of 10 to 1000 nM.

As to `C=CC(=O)N1C[C@@H]2C[C@H](Oc3nc(-c4cnn(C)c4)cn4ncc(C)c34)[C@@H]2C1` [Example 198, 1-((1R,5S,6S)-6-((3-methyl-6-(1-methyl-1H-pyrazol-4-yl)pyrazolo[1,5-a]pyrazin-4-yl)oxy)-3-azabicyclo[3.2.0]heptan-3-yl)prop-2-en-1-one], the IC50 fell in the range of 10 to 1000 nM.

Consider `C=CC(=O)N(C)[C@H]1C[C@@H](Oc2nc(-c3cnn([C@H]4CCOC4)c3)cn3nccc23)C1` [Example 156, N-methyl-N-((cis)-3-((6-(1-((S)-tetrahydrofuran-3-yl)-1H-pyrazol-4-yl)pyrazolo[1,5-a]pyrazin-4-yl)oxy)cyclobutyl)acrylamide], for which the IC50 is under 1 nM.

As to `C=CC(=O)NC1CCCC(Oc2nc(-c3cnn(C)c3)cc3nccn23)C1` (centres unmarked) [Example 48], the IC50 is 1 to 10 nM.

On to `C=CC(=O)N1CC(C)(C)OC(C)(COc2nc(-c3cnn(C)c3)cn3nccc23)C1` (single isomer, unassigned) [Example 119, 1-(2,2,6-trimethyl-6-(((6-(1-methyl-1H-pyrazol-4-yl)pyrazolo[1,5-a]pyrazin-4-yl)oxy)methyl)morpholino)prop-2-en-1-one], for which the IC50 is 10 to 1000 nM.

As for `CC#CC(=O)N[C@@H]1CCC[C@H](Oc2nc(-c3cnn(C)c3)cn3nccc23)C1` [Example 180, N-((1R,3S)-3-((6-(1-methyl-1H-pyrazol-4-yl)pyrazolo[1,5-a]pyrazin-4-yl)oxy)cyclohexyl)but-2-ynamide], the IC50 fell in the range of 10 to 1000 nM.

Consider `C=CC(=O)NC(C)c1cccc(Oc2nc(-c3cnn(C)c3)cn3nccc23)c1C` (centres unmarked) [Example 137, N-(1-(2-methyl-3-((6-(1-methyl-1H-pyrazol-4-yl)pyrazolo[1,5-a]pyrazin-4-yl)oxy)phenyl)ethyl)acrylamide], for which the IC50 was 10 to 1000 nM.

On to `C=CC(=O)N(C)[C@H]1C[C@@H](Oc2nc(-c3cnn(C)c3)cn3nc(N)cc23)C1` [Example 68, N-((cis)-3-((2-amino-6-(1-methyl-1H-pyrazol-4-yl)pyrazolo[1,5-a]pyrazin-4-yl)oxy)cyclobutyl)-N-methylacrylamide], for which the IC50 is under 1 nM.

Regarding `C=CC(=O)N1CCC(COc2nc(-c3cnn(C)c3)cc3nccn23)CC1` [Example 44], the IC50 is 10 to 1000 nM.

As for `C=CC(=O)N1CCC[C@@H](Oc2nc(-c3nc(C)co3)cn3nccc23)CC1` [Example 75, (R)-1-(4-((6-(4-methyloxazol-2-yl)pyrazolo[1,5-a]pyrazin-4-yl)oxy)azepan-1-yl)prop-2-en-1-one], the IC50 fell in the range of 10 to 1000 nM.

Consider `C=CC(=O)N1CCC[C@H](Oc2nc(-c3cnn(C)c3)cn3ncc(Cl)c23)[C@H](F)C1` (racemic) [Example 202, rac-1-((3R,4S)-4-((3-chloro-6-(1-methyl-1H-pyrazol-4-yl)pyrazolo[1,5-a]pyrazin-4-yl)oxy)-3-fluoroazepan-1-yl)prop-2-en-1-one], for which the IC50 lay within 10 to 1000 nM.

With `C=CC(=O)NC1CN(c2cc(-c3cnn(C)c3)cn3nccc23)CC12CC2` (centres unmarked) [Example 87, N-(5-(6-(1-methyl-1H-pyrazol-4-yl)pyrazolo[1,5-a]pyridin-4-yl)-5-azaspiro[2.4]heptan-7-yl)acrylamide], the IC50 fell in the range of 10 to 1000 nM.

For the molecule `C#CC(=O)N1CCC(Oc2nc(-c3cnn(C)c3)cc3nccn23)CC1` [Example 49], the half-inhibitory concentration (IC50) was in the range of 10 to 1000 nM.

In the case of `C=CC(=O)N1CCCC(Oc2nc(-c3cn(C)nc3C)cn3nccc23)CC1` (single isomer, unassigned) [Example 69 E2, 1-[4-[6-(1,3-dimethylpyrazol-4-yl)pyrazolo[1,5-a]pyrazin-4-yl]oxyazepan-1-yl]prop-2-en-1-one], the IC50 was in the range of 10 to 1000 nM.

Turning to `C=CC(=O)N(C)[C@H]1C[C@@H](Oc2nc(-c3cnn([C@@H]4CCOC4)c3)cn3nccc23)C1` [Example 155, N-methyl-N-((cis)-3-((6-(1-((R)-tetrahydrofuran-3-yl)-1H-pyrazol-4-yl)pyrazolo[1,5-a]pyrazin-4-yl)oxy)cyclobutyl)acrylamide], the IC50 was under 1 nM.

Take `C=CC(=O)N1CCC[C@H](Nc2nc(-c3cnn(C)c3)cn3nccc23)CC1` (single isomer, unassigned) [Example 161]: the IC50 was in the range of 10 to 1000 nM.

Regarding `C=CC(=O)N1C[C@@H]2C[C@@H](Oc3nc(-c4cnn(C)c4)cn4nccc34)C[C@@H]21` (racemic) [Example 209, rac-((1S,3R,5S)-3-((6-(1-methyl-1H-pyrazol-4-yl)pyrazolo[1,5-a]pyrazin-4-yl)oxy)-6-azabicyclo[3.2.0]heptan-6-yl)prop-2-en-1-one], the IC50 is under 1 nM.

On to `C=CC(=O)N1C[C@@H]2[C@@H](CNc3cc(-c4cnn(C)c4)cn4nccc34)[C@@H]2C1` [Example 165, 1-((1R,5S,6s)-6-(((6-(1-methyl-1H-pyrazol-4-yl)pyrazolo[1,5-a]pyridin-4-yl)amino)methyl)-3-azabicyclo[3.1.0]hexan-3-yl)prop-2-en-1-one], for which the IC50 was 1 to 10 nM.

Consider `CC#CC(=O)N1CC(C)(C)OC(C)(COc2nc(-c3cnn(C)c3)cn3nccc23)C1` (single isomer, unassigned) [Example 122, 1-(2,2,6-trimethyl-6-(((6-(1-methyl-1H-pyrazol-4-yl)pyrazolo[1,5-a]pyrazin-4-yl)oxy)methyl)morpholino)but-2-yn-1-one], for which the IC50 fell in the range of 10 to 1000 nM.

Regarding `C=CC(=O)N(C)[C@H]1COC[C@H](Oc2nc(-c3cnn(C)c3)cn3nccc23)C1` (racemic) [Example 97, rac-N-methyl-N-((3R,5R)-5-((6-(1-methyl-1H-pyrazol-4-yl)pyrazolo[1,5-a]pyrazin-4-yl)oxy)tetrahydro-2H-pyran-3-yl)acrylamide], the IC50 was in the range of 10 to 1000 nM.

Take `C=CC(=O)N1C[C@H]2C[C@@H](C1)[C@H]2COc1cc(-c2cnn(C)c2)cn2ncc(F)c12` (single isomer, unassigned) [Example 84, 1-((1R,5S,6s) or (1R,5S,6r)-6-(((3-fluoro-6-(1-methyl-1H-pyrazol-4-yl)pyrazolo[1,5-a]pyridin-4-yl)oxy)methyl)-3-azabicyclo[3.1.1]heptan-3-yl)prop-2-en-1-one]: the IC50 was under 1 nM.

In the case of `C=CC(=O)N1CCCC(Oc2nc(-c3cnn(C)c3)cn3ncc(Cl)c23)[C@H](F)C1` (mixture of isomers) [Example 203], the IC50 was 10 to 1000 nM.

With `C=CC(=O)N1CCC(CNc2nc(-c3cnn(C)c3)cn3nccc23)CC1` [Example 18, 1-(4-(((6-(1-methyl-1H-pyrazol-4-yl)pyrazolo[1,5-a]pyrazin-4-yl)amino)methyl)piperidin-1-yl)prop-2-en-1-one], the IC50 lay within 1 to 10 nM.

Consider `C=CC(=O)N1C[C@H](COc2cc(-c3cnn(C)c3)cn3nccc23)OC(C)(C)C1` [Example 83, (R)-1-(2,2-dimethyl-6-(((6-(1-methyl-1H-pyrazol-4-yl)pyrazolo[1,5-a]pyridin-4-yl)oxy)methyl)morpholino)prop-2-en-1-one], for which the IC50 is 1 to 10 nM.

As to `CC#CC(=O)Nc1cncc(Oc2nc(-c3cnn(C)c3)cn3nccc23)c1` [Example 138, N-(5-((6-(1-methyl-1H-pyrazol-4-yl)pyrazolo[1,5-a]pyrazin-4-yl)oxy)pyridin-3-yl)but-2-ynamide], the IC50 is 1 to 10 nM.
